One data set concerns Phytophthora infestans. Put plainly: whole plant or invertebrate. In kind it is in vivo. To be noted: in Solanum lycopersicum, foliar, read-out: disease control.
A further data set concerns Pythium ultimum. The data set can be described thus: Pythium ultimum / liquid culture (seedling damping off). In kind it is cell-based. Particulars: Globisporangium ultimum; 200 ppm; potato dextrose broth, 24° C., 2-3 days after application; read-out: disease control (inhibition of growth determined photometrically).
A further data set has as its system Gaeumannomyces graminis. The data set can be described thus: Gaeumannomyces graminis / liquid culture (take-all of cereals). The format is cell-based. To be noted: PDB potato dextrose broth, 24° C., 4-5 days after application, read-out: disease control (inhibition of growth determined photometrically). The method in brief:
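Growth inhibition measured photometrically 4–5 days post-application, following incubation at 24 °C. Test compound, applied from DMSO at 200 ppm, mixed with fungal mycelial fragments in potato dextrose broth.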

A further data set has as its system Plasmopara viticola. Put plainly: whole plant or invertebrate. The format is in vivo. To be noted: foliar, read-out: disease control.
Data set [1] deals with Monographella nivalis (Microdochium nivale). Put plainly: Monographella nivalis (Microdochium nivale) / liquid culture (foot rot cereals). In kind it is cell-based. To be noted: PDB potato dextrose broth, 24° C., 4-5 days after application, read-out: disease control (inhibition of growth determined photometrically).
For data set [2], the system named is Mycosphaerella graminicola (Septoria tritici). Put plainly: Mycosphaerella graminicola (Septoria tritici) / liquid culture (Septoria blotch). The format is cell-based. To be noted: Zymoseptoria tritici, PDB potato dextrose broth, 24° C., 4-5 days after application, read-out: disease control (inhibition of growth determined photometrically). The gist of the method:
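Growth inhibition was read photometrically 4-5 days after application, following incubation at 24° C of fungal conidia in potato dextrose broth over test compound (200 ppm, from DMSO solution) in microtiter plates.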

Data set [3] has as its system Glomerella lagenarium (Colletotrichum lagenarium). The data set can be described thus: Glomerella lagenarium (Colletotrichum lagenarium) / liquid culture (anthracnose). Particulars: Colletotrichum orbiculare, PDB potato dextrose broth, 24° C., 3-4 days after application, read-out: disease control (inhibition of growth measured photometrically). The format is cell-based. The method in brief:
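Compound was applied at 200 ppm from DMSO solution, then potato dextrose broth carrying cryostored fungal spores was added. Growth inhibition was measured by photometry after 3-4 days of incubation at 24° C.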

Data set [4] deals with Mycosphaerella arachidis (Cercospora arachidicola). The data set can be described thus: Mycosphaerella arachidis (Cercospora arachidicola) / liquid culture (early leaf spot). Particulars: PDB potato dextrose broth, 24° C., 4-5 days after application, read-out: disease control (inhibition of growth determined photometrically). In kind it is cell-based. The method in brief: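 Test compound, applied at 200 ppm from DMSO solution, was combined with spore-containing potato dextrose broth. Photometric growth inhibition was scored after 4-5 days at 24° C.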

The next data set has as its system Fusarium culmorum. Put plainly: microbe, parasite or virus in culture. In kind it is cell-based. To be noted: read-out: disease control (inhibition of growth determined visually).
For data set [5], the system named is Thanatephorus cucumeris (Rhizoctonia solani). The data set can be described thus: Thanatephorus cucumeris (Rhizoctonia solani) / liquid culture (foot rot, damping-off). The format is cell-based. Particulars: PDB potato dextrose broth, 24° C., 3-4 days after application, read-out: disease control (inhibition of growth determined photometrically). The method in brief: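 Photometric growth-inhibition readout taken 3-4 days after application, with cultures incubated at 24 °C. Test compound was applied at 200 ppm from DMSO solution to R. solani mycelial fragments in PDB.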

As for `O=C(NCCSCc1ccccc1)c1cc2c(cc1Cl)COB2O` [Compound 59], the pest or weed control at 200 ppm in the data set on Phytophthora infestans is ≥ 80%. In the data set on Pythium ultimum, the inhibition at 200 ppm is ≥ 80%.
On to `CCOC(=O)C1CC=CCC1NC(=O)c1cc2c(cc1F)COB2O` (stereo not shown) [Compound 78], for which the pest or weed control at 200 ppm in the data set on Phytophthora infestans was ≥ 80%. For the same compound, the inhibition at 200 ppm with Pythium ultimum and with Gaeumannomyces graminis was ≥ 80% throughout.
Take `O=C(NCCSCc1ccccc1)c1cc2c(cc1F)COB2O` [Compound 84]: the pest or weed control at 200 ppm with Phytophthora infestans and with Plasmopara viticola was ≥ 80% in each case. In addition, in the data set on Pythium ultimum, the inhibition at 200 ppm is ≥ 80%.
`O=C(NCc1ccc2c(c1)OCCO2)c1cc2c(cc1Cl)COB2O` [Compound 87]: in the data set with Phytophthora infestans, the pest or weed control at 200 ppm was ≥ 80%. Also, in the data set with Pythium ultimum, the inhibition at 200 ppm was ≥ 80%.
`C#CC1(NC(=O)c2cc3c(cc2F)COB3O)CCCCC1` [Compound 90]: in the data set with Phytophthora infestans, the pest or weed control at 200 ppm is ≥ 80%. The inhibition at 200 ppm (in the data set on Pythium ultimum; in [1]) was ≥ 80% each time.
`O=C(NCC1CCCO1)c1cc2c(cc1F)COB2O` (stereo not shown) [Compound 94]: the pest or weed control at 200 ppm in the data set on Phytophthora infestans was ≥ 80%. For the same compound, the inhibition at 200 ppm in the data set with Pythium ultimum was ≥ 80%.
Turning to `O=C(NCc1cccc(Cl)c1)c1cc2c(cc1F)COB2O` [Compound 119], the pest or weed control at 200 ppm in the data set on Phytophthora infestans and with Plasmopara viticola was ≥ 80% throughout. Besides, the inhibition at 200 ppm with Pythium ultimum is ≥ 80%.
On to `O=C(NCc1ccc2c(c1)OCCO2)c1cc2c(cc1F)COB2O` [Compound 121], for which the pest or weed control at 200 ppm in the data set on Phytophthora infestans and with Plasmopara viticola was ≥ 80% in each case. In the data set on Pythium ultimum, the inhibition at 200 ppm was ≥ 80%.
Take `COc1ccc(CNC(=O)c2cc3c(cc2F)COB3O)cc1` [Compound 124]: the pest or weed control at 200 ppm with Phytophthora infestans and in the data set on Plasmopara viticola was ≥ 80% throughout. Also, the inhibition at 200 ppm in the data set with Pythium ultimum is ≥ 80%.
As to `O=C(NCc1ccccc1OC(F)(F)F)c1cc2c(cc1F)COB2O` [Compound 128], the pest or weed control at 200 ppm in the data set on Phytophthora infestans is ≥ 80%. Further, in the data set with Pythium ultimum, the inhibition at 200 ppm was ≥ 80%.
For `COc1ccc(-c2ccccc2)cc1NC(=O)c1cc2c(cc1Cl)COB2O` [Compound 129], the pest or weed control at 200 ppm in the data set on Phytophthora infestans was ≥ 80%. Also, the inhibition at 200 ppm (in the data set with Pythium ultimum; in [2]; in the data set on Gaeumannomyces graminis; in data set [1]) was ≥ 80% throughout.
Turning to `O=C(NCc1ccccc1C(F)(F)F)c1cc2c(cc1F)COB2O` [Compound 132], the pest or weed control at 200 ppm with Phytophthora infestans and in the data set with Plasmopara viticola was ≥ 80% throughout. Further, the inhibition at 200 ppm (in the data set with Pythium ultimum; in data set [3]; in the data set with Gaeumannomyces graminis; in data set [1]) was ≥ 80% in each case.
Compound `O=C(NCc1ccc(Oc2ccccc2)cc1)c1cc2c(cc1F)COB2O` [Compound 136] gave a melting point of 178 to 180 °C. The inhibition at 200 ppm in the data set on Pythium ultimum is ≥ 80%. In [3], the inhibition at 200 ppm was ≥ 80%. Moreover, the inhibition at 200 ppm in data set [4] was ≥ 80%. The inhibition at 200 ppm in [2] was ≥ 80%. Moreover, the inhibition at 200 ppm in data set [1] was ≥ 80%.
As for `O=C(NCc1ccc(Cl)nc1)c1cc2c(cc1F)COB2O` [Compound 138], in the data set on Phytophthora infestans, the pest or weed control at 200 ppm is ≥ 80%. For the same compound, in the data set on Pythium ultimum, the inhibition at 200 ppm was ≥ 80%.
In turn, `O=C(NCc1ccco1)c1cc2c(cc1F)COB2O` [Compound 144] yielded a melting point of 158 to 160 °C. For the same compound, the pest or weed control at 200 ppm with Plasmopara viticola was ≥ 80%. The inhibition at 200 ppm in the data set with Pythium ultimum is ≥ 80%. Besides, the inhibition at 200 ppm in data set [3] is ≥ 80%. Moreover, the inhibition at 200 ppm in [4] was ≥ 80%. Besides, the inhibition at 200 ppm in [2] was ≥ 80%. Moreover, the inhibition at 200 ppm in the data set with Gaeumannomyces graminis is ≥ 80%. Moreover, in data set [1], the inhibition at 200 ppm is ≥ 80%.
Regarding `CC(C)c1ccc(NC(=O)c2cc3c(cc2F)COB3O)cc1` [Compound 146], the melting point lay in the range of 184 to 186 °C. The inhibition at 200 ppm in the data set with Pythium ultimum was ≥ 80%. In addition, the inhibition at 200 ppm in data set [3] is ≥ 80%. Moreover, in data set [2], the inhibition at 200 ppm was ≥ 80%. For the same compound, the inhibition at 200 ppm in data set [1] was ≥ 80%. In the data set with Fusarium culmorum, the inhibition at 200 ppm was ≥ 80%.
As for `COC(=O)c1cc2cc(NC(=O)c3cc4c(cc3F)COB4O)ccc2s1` [Compound 163], the pest or weed control at 200 ppm in the data set on Phytophthora infestans was ≥ 80%. Moreover, the inhibition at 200 ppm in the data set on Pythium ultimum was ≥ 80%.
In the case of `CC(=O)c1sc(NC(=O)c2cc3c(cc2F)COB3O)nc1C` [Compound 181], the pest or weed control at 200 ppm in the data set on Phytophthora infestans is ≥ 80%. Also, the inhibition at 200 ppm (in the data set with Pythium ultimum; in [1]) was ≥ 80% in each case.
As to `O=C(Nc1cc(-c2ccccc2)[nH]n1)c1cc2c(cc1F)COB2O` [Compound 182], the pest or weed control at 200 ppm in the data set with Phytophthora infestans and in the data set on Plasmopara viticola was ≥ 80% throughout. Further, the inhibition at 200 ppm with Pythium ultimum was ≥ 80%.
With `CC(C#N)OC(=O)c1cc2c(cc1Cl)COB2O` (stereo not shown) [Compound 193], in the data set on Phytophthora infestans, the pest or weed control at 200 ppm is ≥ 80%. In the data set on Pythium ultimum, the inhibition at 200 ppm was ≥ 80%.
For the compound `COC(=O)C(C)OC(=O)c1cc2c(cc1Cl)COB2O` (stereo not shown) [Compound 206], the pest or weed control at 200 ppm in the data set with Phytophthora infestans was ≥ 80%. Moreover, the inhibition at 200 ppm (in the data set on Pythium ultimum; in [5]) was ≥ 80% throughout.
As for `O=C(OCc1ccc(C(F)(F)F)nc1)c1cc2c(cc1Cl)COB2O` [Compound 217], the pest or weed control at 200 ppm in the data set with Phytophthora infestans is ≥ 80%. The inhibition at 200 ppm (with Pythium ultimum; in data set [3]; with Gaeumannomyces graminis; in data set [1]) was ≥ 80% throughout.
Consider `N#CCCOC(=O)c1cc2c(cc1Cl)COB2O` [Compound 231], for which the pest or weed control at 200 ppm in the data set with Phytophthora infestans is ≥ 80%. For the same compound, the inhibition at 200 ppm in the data set with Pythium ultimum is ≥ 80%.
On to `O=C(OCC(F)F)c1cc2c(cc1Cl)COB2O` [Compound 236], for which the pest or weed control at 200 ppm in the data set on Phytophthora infestans is ≥ 80%. The inhibition at 200 ppm (in the data set on Pythium ultimum; in [3]; in data set [2]; with Gaeumannomyces graminis; in [1]) was ≥ 80% in each case.
`O=C(OCCOc1ccc(Cl)cc1)c1ccc2c(c1)B(O)OC2` [Compound 352] showed a melting point of 122 to 124 °C. Moreover, the inhibition at 200 ppm with Pythium ultimum is ≥ 80%. In [4], the inhibition at 200 ppm is ≥ 80%. Also, the inhibition at 200 ppm in [2] was ≥ 80%. The inhibition at 200 ppm in the data set with Gaeumannomyces graminis was ≥ 80%. Also, in data set [1], the inhibition at 200 ppm was ≥ 80%. Besides, the inhibition at 200 ppm in [5] was ≥ 80%.
Consider `C[Si](C)(C)COC(=O)c1cc2c(cc1F)COB2O` [Compound 429], for which the melting point was in the range of 122 to 124 °C. In the data set with Plasmopara viticola, the pest or weed control at 200 ppm is ≥ 80%. Further, the inhibition at 200 ppm in the data set with Pythium ultimum is ≥ 80%. The inhibition at 200 ppm in [3] is ≥ 80%. The inhibition at 200 ppm in data set [2] is ≥ 80%. Further, the inhibition at 200 ppm with Gaeumannomyces graminis is ≥ 80%. Besides, the inhibition at 200 ppm in data set [1] was ≥ 80%. Besides, the inhibition at 200 ppm in the data set on Fusarium culmorum was ≥ 80%. Further, the inhibition at 200 ppm in data set [5] is ≥ 80%.
In turn, `O=C(Oc1ccccn1)c1cc2c(cc1F)COB2O` [Compound 442] yielded a melting point of 213 to 215 °C. In the data set with Pythium ultimum, the inhibition at 200 ppm was ≥ 80%. Moreover, the inhibition at 200 ppm in data set [1] was ≥ 80%. For the same compound, the inhibition at 200 ppm in data set [5] is ≥ 80%.
`CC(=O)C(C)OC(=O)c1cc2c(cc1Cl)COB2O` (stereo not shown) [Compound 451] came in with a melting point of 102 to 104 °C. Further, in the data set with Plasmopara viticola, the pest or weed control at 200 ppm is ≥ 80%. The inhibition at 200 ppm in the data set with Pythium ultimum was ≥ 80%. For the same compound, the inhibition at 200 ppm in [4] was ≥ 80%. The inhibition at 200 ppm in [2] is ≥ 80%. Besides, the inhibition at 200 ppm in the data set on Gaeumannomyces graminis is ≥ 80%. Moreover, in [1], the inhibition at 200 ppm was ≥ 80%.
